Experiment [1] deals with PgUGT94B1. Put plainly: In vitro glycosyltransferase assay with purified recombinant PgUGT94B1. Type of experiment: biochemical, Panax ginseng. To be noted: ginsenoside 5 mM, UDP-glucose 50 mM, enzyme 30 μg, pH 7, 35° C., 12 hours. The protocol: (§1) A glycosyltransferase assay was performed in a reaction buffer (10 mM PBS buffer, pH 7) containing the purified PgUGT74A1 or PgUGT94B1 (30 μg), a ginsenoside compound (5 mM) and UDP-glucose (50 mM). For this assay, 10 different types of ginsenosides including PPD (Protopanaxadiol), PPT (Protopanaxatriol), Compound K (C-K), ginsenoside Rg3, Rh2, F2, Rd, Rg2, Rh1 and F1 were used, and the structures of the ginsenosides are shown in FIG. 1.
(§2) The reaction mixture was incubated at 35° C. for 12 hours, and then the products were analyzed by thin-layer chromatography (TLC) or high performance liquid chromatography (HPLC).
(§3) TLC analysis was performed using a mobile phase (acetone:methanol:DDW=65:35:10 vol/vol) and a 60F254 silica gel plate (Merck, Germany). The resolved product on the TLC plate was detected by spraying the plate with 10% (vol/vol) sulfuric acid (H2SO4) and heating it at 110° C. for 5 minutes.
(§4) HPLC analysis was performed using ODS (2) C18 column (Phenomenex, USA). Water and acetonitrile gradient application time; and a component ratio are as follows: at a flow rate of 1 ml per minute for 0 minute, 68% water and 32% acetonitrile; 8 minutes, 35% water and 65% acetonitrile; 12 minutes, 0% water and 100% acetonitrile; 20 minutes, 0% water and 100% acetonitrile; 20.1 minutes, 68% water and 32% acetonitrile; and 28 minutes, 68% water and 32% acetonitrile.
(§5) Ginsenosides were detected by using a UV-detector (Younglin, Korea) at a wavelength of 203 nm.
First, the recombinant PgUGT of Example 1, PgUGT94B1, was incubated with 10 different types of ginsenosides (PPD, C-K, Rh2, F2, Rg3, Rd, Rg2, Rh1, F1 and PPT) in the presence of UDP-glucose, and then the products converted by the recombinant PgUGT were analyzed by TLC.

For the next experiment, the system named is PgUGT74A1 and PgUGT94B1. Nature of the experiment: In vitro glycosyltransferase assay with both PgUGT74A1 and PgUGT94B1 in a single reaction tube. The class given is biochemical, Panax ginseng. To be noted: both enzymes in a single reaction tube, in the presence of UDP-Glc. The protocol:
PPD (upper panel) or C-K (lower panel) was incubated with both of PgUGT74A1 and PgUGT94B1 in the presence of UDP-Glc. Then the reaction mixture was analyzed by HPLC. […] Rg3 and Rd converted by the above two enzymes are marked as black triangles;
as §1, §2
HPLC analysis was performed using ODS (2) C18 column (Phenomenex, USA). […]
Ginsenosides were detected by using a UV-detector (Younglin, Korea) at a wavelength of 203 nm. […]

For experiment [2], the system named is PgUGT74A1. Put plainly: In vitro glycosyltransferase assay with purified recombinant PgUGT74A1. The class given is biochemical, Panax ginseng. To be noted: ginsenoside 5 mM, UDP-glucose 50 mM, enzyme 30 μg, pH 7, 35° C., 12 hours. The protocol:
as §1, §2, §3, §4, §5
First, the recombinant PgUGT of Example 1, PgUGT74A1, was incubated with 10 different types of ginsenosides (PPD, C-K, Rh2, F2, Rg3, Rd, Rg2, Rh1, F1 and PPT) in the presence of UDP-glucose, and the products converted by the recombinant PgUGT were analyzed by TLC.

Another experiment concerns ginseng. Nature of the experiment: Concentrations of 4 major ginsenosides after spraying MeJA onto the leaf of ginseng. Type of experiment: in vivo, Panax ginseng. To be noted: MeJA sprayed onto the leaf of ginseng; versus untreated. As for the experimental part:
(§6) Total RNA was isolated from the leaf or root of 15-month-old ginseng using a spectrum plant total RNA kit (Sigma-Aldrich). 200 μM methyl jasmonate (MeJA) was sprayed onto the leaves of ginseng everyday for a total of 5 days, and samples were collected on the 6th day. The 1 μg of total RNA was used for cDNA synthesis.
In this regard, the concentrations of 4 major ginsenosides were measured after spraying MeJA onto the leaf of ginseng. The treatment of MeJA increased the concentrations of two PPD-type ginsenosides, Rd and Rb1, by 1.55 and 1.14 times respectively (FIG. 6c). In addition, the treatment of MeJA increased the concentrations of two PPT-type ginsenosides, Rg1 and Re, by 2.61 and 1.45 times respectively.

Experiment [3] concerns PgDS (dammarenediol-II synthase). Put plainly: Quantitative RT-PCR of PgDS expression in ginseng leaves sprayed with MeJA. To be noted: 200 μM MeJA sprayed on leaves of 15-month-old ginseng everyday for 5 days, samples on 6th day; normalized to tubulin. The class given is in vivo, Panax ginseng. As for the experimental part:
as §6
(§7) Expression levels of different genes were examined by a quantitative RT-PCR using the primer sets listed in the following Table 2, and the results were normalized to the expression level of tubulin.
(§8) The 15-month old ginseng grown in a growth chamber under LD conditions was collected, and MeJA was sprayed onto its leaves everyday for a total of 5 days. To analyze expression level of the ginsenoside biosynthetic genes, samples were collected on the 6th days. […] However, expression of PgPPTS was not induced by MeJA under the conditions of the present invention.

Experiment [4] has as its system PgUGT94B1. Put plainly: Quantitative RT-PCR of PgUGT94B1 expression in ginseng leaves sprayed with MeJA. The class given is in vivo, Panax ginseng. As to conditions: 200 μM MeJA sprayed on leaves of 15-month-old ginseng everyday for 5 days, samples on 6th day; normalized to tubulin. As for the experimental part:
as §6, §7, §8

The subject of experiment [5] is PgPPDS (protopanaxadiol synthase). Nature of the experiment: Quantitative RT-PCR of PgPPDS expression in ginseng leaves sprayed with MeJA. Type of experiment: in vivo, Panax ginseng. As to conditions: 200 μM MeJA sprayed on leaves of 15-month-old ginseng everyday for 5 days, samples on 6th day; normalized to tubulin. As for the experimental part: as §6, §7, §8

Experiment [6] relates to PgUGT74A1. Put plainly: Quantitative RT-PCR of PgUGT74A1 expression in ginseng leaves sprayed with MeJA. The class given is in vivo, Panax ginseng. To be noted: 200 μM MeJA sprayed on leaves of 15-month-old ginseng everyday for 5 days, samples on 6th day; normalized to tubulin. The protocol:
as §6, §7, §8

Experiment [7] relates to PgPPTS (protopanaxatriol synthase). Nature of the experiment: Quantitative RT-PCR of PgPPTS expression in ginseng leaves sprayed with MeJA. Type of experiment: in vivo, Panax ginseng. To be noted: 200 μM MeJA sprayed on leaves of 15-month-old ginseng everyday for 5 days, samples on 6th day; normalized to tubulin. As for the experimental part:
as §6, §7, §8

Regarding `CC(C)=CCCC(C)(O)[C@H]1CC[C@]2(C)[C@@H]1[C@H](O)C[C@@H]1[C@@]3(C)CC[C@H](O)C(C)(C)[C@@H]3CC[C@]12C` (stereo in doubt) [PPD, Protopanaxadiol], the “conversion of the ginsenoside by PgUGT94B1 (HPLC analysis)” value with PgUGT94B1 [1] was “did not convert PPD and C-K into other ginsenosides”. The “conversion of the ginsenoside by PgUGT74A1 and PgUGT94B1 together (HPLC analysis)” value with PgUGT74A1 and PgUGT94B1 is “successfully converted into Rg3”. Also, in the experiment with PgUGT74A1 [2], the “conversion of the ginsenoside by PgUGT74A1 (HPLC analysis)” value is “converted PPD and C-K into ginsenoside Rh2 and F2 respectively”; the “conversion of the ginsenoside by PgUGT74A1 (TLC analysis)” value is “converted PPD and C-K into ginsenoside Rh2 and ginsenoside F2 respectively”.

As for `CC(C)=CCC[C@](C)(O[C@@H]1O[C@H](CO)[C@@H](O)[C@H](O)[C@H]1O)[C@H]1CC[C@]2(C)[C@@H]1[C@H](O)C[C@@H]1[C@@]3(C)CC[C@H](O)C(C)(C)[C@@H]3CC[C@]12C` [C-K, Compound K], the “conversion of the ginsenoside by PgUGT94B1 (HPLC analysis)” value in the experiment with PgUGT94B1 [1] was “did not convert PPD and C-K into other ginsenosides”. Also, the “conversion of the ginsenoside by PgUGT74A1 and PgUGT94B1 together (HPLC analysis)” value with PgUGT74A1 and PgUGT94B1 is reported as “successfully converted into Rd”. For the same compound, in the experiment on PgUGT74A1 [2], the “conversion of the ginsenoside by PgUGT74A1 (HPLC analysis)” value was “converted PPD and C-K into ginsenoside Rh2 and F2 respectively”; the “conversion of the ginsenoside by PgUGT74A1 (TLC analysis)” value was “converted PPD and C-K into ginsenoside Rh2 and ginsenoside F2 respectively”.

For the compound `CC/C=C\C[C@H]1C(=O)CC[C@@H]1CC(=O)OC` [MeJA, Methyl(1R,2R)-3-Oxo-2-(2Z)-2-pentenyl-cyclopentaneacetate], in the experiment on ginseng, the “increase of the concentration of PPD-type ginsenoside Rb1 by MeJA treatment” value is 1.14 times, the “increase of the concentration of PPD-type ginsenoside Rd by MeJA treatment” value worked out at 1.55 times, the “increase of the concentration of PPT-type ginsenoside Re by MeJA treatment” value was found to be 1.45 times and the “increase of the concentration of PPT-type ginsenoside Rg1 by MeJA treatment” value came out at 2.61 times. Besides, the “expression of PgDS after MeJA treatment” value in experiment [3] is given as “enhanced the expression”. The “expression level of PgUGT94B1 after MeJA treatment” value in the experiment on PgUGT94B1 [4] is listed as “higher expression level”. The “expression of PgPPDS after MeJA treatment” value in [5] was “enhanced the expression”. Besides, the “expression level of PgUGT74A1 after MeJA treatment” value with PgUGT74A1 [6] was “higher expression level”. Moreover, the “expression of PgPPTS after MeJA treatment” value in [7] is reported as “not induced”.

For `CC(C)=CCC[C@](C)(O[C@@H]1O[C@H](CO)[C@@H](O)[C@H](O)[C@H]1O)[C@H]1CC[C@]2(C)[C@@H]1[C@H](O)C[C@@H]1[C@@]3(C)CC[C@H](O[C@@H]4O[C@H](CO)[C@@H](O)[C@H](O)[C@H]4O)C(C)(C)[C@@H]3CC[C@]12C` [ginsenoside F2], in the experiment on PgUGT94B1 [1], the “conversion of the ginsenoside by PgUGT94B1 (HPLC analysis)” value is “converted ginsenoside Rh2 and F2 into ginsenoside Rg3 and Rd respectively”; the “conversion of the ginsenoside by PgUGT94B1 (TLC analysis)” value is “converted ginsenoside Rh2 and ginsenoside F2 into ginsenoside Rg3 and ginsenoside Rd respectively”. For the same compound, in the experiment on PgUGT74A1 [2], the “conversion of the ginsenoside by PgUGT74A1 (HPLC analysis)” value was “did not convert ginsenoside Rh2 and F2”.

Consider `CC(C)=CCC[C@](C)(O)[C@H]1CC[C@]2(C)[C@@H]1[C@H](O)C[C@@H]1[C@@]3(C)CC[C@H](O[C@@H]4O[C@H](CO)[C@@H](O)[C@H](O)[C@H]4O)C(C)(C)[C@@H]3CC[C@]12C` [ginsenoside Rh2], for which, in the experiment on PgUGT94B1 [1], the “conversion of the ginsenoside by PgUGT94B1 (HPLC analysis)” value was “converted ginsenoside Rh2 and F2 into ginsenoside Rg3 and Rd respectively”; the “conversion of the ginsenoside by PgUGT94B1 (TLC analysis)” value was “converted ginsenoside Rh2 and ginsenoside F2 into ginsenoside Rg3 and ginsenoside Rd respectively”. Moreover, the “conversion of the ginsenoside by PgUGT74A1 (HPLC analysis)” value with PgUGT74A1 [2] is “did not convert ginsenoside Rh2 and F2”.

The values are drawn from US20150240220A1, “NOVEL UDP-GLYCOSYLTRANSFERASE DERIVED FROM GINSENG AND USE THEREOF” (KOREA ADVANCED INSTITUTE OF SCIENCE AND TECHNOLOGY, priority 2012, published 2015).
